Usually EC50 stands for the midpoint of the concentration-response curve.

Starred links: 1 amine or outer side, 2 acyl side, 3 side chain; linkers in the order of their positions; H or OH if unused. Non-standard residues stand in square brackets, D forms with d. Residues, ends and D or L forms follow the SMILES beside them. Groups on a side chain read outwards from the residue. *: point of attachment. Phe(4-CH2NH2) = NCc1ccc(C[C@H](N)C(=O)O)cc1; C18 diacid = O=C(O)CCCCCCCCCCCCCCCCC(=O)*; C16 diacid = O=C(O)CCCCCCCCCCCCCCC(=O)*; γGlu = O=C(O)[C@H](CCC(=O)[*:2])N[*:1]; Met(O2) = CS(=O)(=O)CC[C@H](N)C(=O)O; αMeD = C[C@](N)(CC(=O)O)C(=O)O; αMeL = CC(C)C[C@](C)(N)C(=O)O; AEEA = NCCOCCOCC(=O)O; Aib = CC(C)(N)C(=O)O

The record followed here is US11492385B2, “Long-acting co-agonists of the glucagon and GLP-1 receptors” (Merck Sharp & Dohme Corp., priority 2015, dated 2022).

In one assay the target is T1, human GLP1R (Homo sapiens, UniProt P43220).
T1 construct: expressed in transfected cells; kept under Blasticidin and Hygromycin selection
T1 sequence (P43220 24-463): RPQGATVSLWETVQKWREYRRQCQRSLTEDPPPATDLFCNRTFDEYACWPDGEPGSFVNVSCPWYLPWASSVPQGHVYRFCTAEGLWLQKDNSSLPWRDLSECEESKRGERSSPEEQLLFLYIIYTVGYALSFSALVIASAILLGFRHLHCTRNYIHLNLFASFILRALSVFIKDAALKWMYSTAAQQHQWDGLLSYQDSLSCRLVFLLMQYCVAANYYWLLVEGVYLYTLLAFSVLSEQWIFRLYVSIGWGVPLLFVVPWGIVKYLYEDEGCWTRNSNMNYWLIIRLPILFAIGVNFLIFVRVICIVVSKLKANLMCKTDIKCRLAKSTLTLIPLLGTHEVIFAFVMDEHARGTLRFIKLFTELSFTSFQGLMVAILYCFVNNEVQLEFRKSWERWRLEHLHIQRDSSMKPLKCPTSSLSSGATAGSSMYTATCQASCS
Briefly: cAMP activity assay, cells expressing human GLP1R. Type of assay: cell-based. Conditions: cAMP production, assay buffer with or without 20% human serum (not stated which). Summed up: (§1)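 Peptides as 10-point titrations from DMSO tested on cells expressing human GLP1R or GCGR. cAMP measured by luminescent kit after overnight room-temperature incubation in the dark. EC50 from four-parameter logistic fit; native GLP-1 and glucagon as controls.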
For orientation: Changes in cAMP serve as a functional read-out for many G protein-coupled receptors.

The target in the next assay is T2, human GCGR (Homo sapiens, UniProt P47871).
T2 construct: expressed in transfected cells; kept under Blasticidin and Hygromycin selection
T2 sequence (P47871 26-477): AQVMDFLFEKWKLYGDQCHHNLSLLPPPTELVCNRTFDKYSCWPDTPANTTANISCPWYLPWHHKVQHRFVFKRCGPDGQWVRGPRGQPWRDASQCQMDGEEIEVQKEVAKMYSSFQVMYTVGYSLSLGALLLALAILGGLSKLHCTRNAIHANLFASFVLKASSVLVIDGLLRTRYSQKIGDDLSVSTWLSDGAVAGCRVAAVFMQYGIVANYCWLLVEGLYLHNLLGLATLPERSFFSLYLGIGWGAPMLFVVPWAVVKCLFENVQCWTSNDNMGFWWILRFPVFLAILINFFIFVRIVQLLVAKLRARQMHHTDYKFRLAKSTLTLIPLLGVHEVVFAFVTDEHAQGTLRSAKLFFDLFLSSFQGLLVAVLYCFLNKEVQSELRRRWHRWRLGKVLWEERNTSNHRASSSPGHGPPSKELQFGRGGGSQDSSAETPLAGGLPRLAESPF
Nature of the assay: cAMP activity assay, cells expressing human GCGR. It counts as cell-based. The settings on record: for EC50: cAMP production, cells expressing human GCGR, assay buffer with or without 20% human serum (not stated which), read-out: GCGR EC50 human; for hGCGR/hGLP1R (hTone): ratio of human GCGR EC50 to human GLP1R EC50. Summed up:
as §1

`CC(C)C[C@H](NC(=O)[C@H](Cc1ccc(O)cc1)NC(=O)[C@H](CCCCN)NC(=O)[C@H](CO)NC(=O)[C@H](Cc1ccc(O)cc1)NC(=O)[C@H](CC(=O)O)NC(=O)[C@H](CO)NC(=O)[C@@H](NC(=O)[C@H](Cc1ccccc1)NC(=O)[C@@H](NC(=O)CNC(=O)[C@H](CCC(N)=O)NC(=O)C(C)(C)NC(=O)[C@@H](N)Cc1c[nH]cn1)[C@@H](C)O)[C@@H](C)O)C(=O)N[C@@H](CC(=O)O)C(=O)N[C@@H](C)C(=O)N[C@@H](CCCNC(=N)N)C(=O)N[C@@H](C)C(=O)N[C@@H](C)C(=O)N[C@@H](CCC(N)=O)C(=O)N[C@@H](CCCCNC(=O)COCCOCCNC(=O)COCCOCCNC(=O)CC[C@H](NC(=O)CCCCCCCCCCCCCCC(=O)O)C(=O)O)C(=O)N[C@@H](Cc1ccccc1)C(=O)N[C@H](C(=O)N[C@@H](CCC(N)=O)C(=O)N[C@@H](Cc1c[nH]c2ccccc12)C(=O)N[C@@H](CC(C)C)C(=O)N[C@@H](CC(C)C)C(=O)N[C@@H](CC(=O)O)C(=O)N[C@H](C(N)=O)[C@@H](C)O)C(C)C` [compound 18] (H-H[Aib]QGTFTSDYSKYLDARAAQK([AEEA-AEEA-γGlu-C16 diacid])FVQWLLDT-NH2) yielded an EC50 on human GLP1R of 0.03 nM. Besides, at human GCGR, the EC50 came to 0.07 nM and the “hGCGR/hGLP1R (hTone)” value came out at 2.19.
Compound `CC(C)C[C@H](NC(=O)[C@H](Cc1ccc(O)cc1)NC(=O)[C@H](CCCCN)NC(=O)[C@H](CO)NC(=O)[C@H](Cc1ccc(O)cc1)NC(=O)[C@H](CC(=O)O)NC(=O)[C@H](CO)NC(=O)[C@@H](NC(=O)[C@H](Cc1ccccc1)NC(=O)[C@@H](NC(=O)CNC(=O)[C@H](CCC(N)=O)NC(=O)C(C)(C)NC(=O)[C@@H](N)Cc1c[nH]cn1)[C@@H](C)O)[C@@H](C)O)C(=O)N[C@@H](CC(=O)O)C(=O)N[C@@H](C)C(=O)N[C@@H](CCCNC(=N)N)C(=O)N[C@@H](C)C(=O)N[C@@H](C)C(=O)N[C@@H](CCCCNC(=O)COCCOCCNC(=O)COCCOCCNC(=O)CC[C@H](NC(=O)CCCCCCCCCCCCCCCCC(=O)O)C(=O)O)C(=O)N[C@@H](CC(=O)O)C(=O)N[C@@H](Cc1ccccc1)C(=O)N[C@H](C(=O)N[C@@H](CCC(N)=O)C(=O)N[C@@H](Cc1c[nH]c2ccccc12)C(=O)N[C@@H](CC(C)C)C(=O)N[C@@H](CCS(C)(=O)=O)C(=O)N[C@@](C)(CC(=O)O)C(=O)N[C@H](C(N)=O)[C@@H](C)O)C(C)C` [compound 74] (H-H[Aib]QGTFTSDYSKYLDARAAK([AEEA-AEEA-γGlu-C18 diacid])DFVQWL[Met(O2)][αMeD]T-NH2) gave an EC50 at human GLP1R of 1.39 nM. Also, at human GCGR, the EC50 was determined as 0.86 nM and the “hGCGR/hGLP1R (hTone)” value is on record as 0.6.
Taken in the same sequence, the figures for `CC(C)C[C@H](NC(=O)[C@H](Cc1ccc(O)cc1)NC(=O)[C@H](CCCCN)NC(=O)[C@H](CO)NC(=O)[C@H](Cc1ccc(O)cc1)NC(=O)[C@H](CC(=O)O)NC(=O)[C@H](CO)NC(=O)[C@@H](NC(=O)[C@H](Cc1ccccc1)NC(=O)[C@@H](NC(=O)CNC(=O)[C@H](CCC(N)=O)NC(=O)C(C)(C)NC(=O)[C@@H](N)Cc1c[nH]cn1)[C@@H](C)O)[C@@H](C)O)C(=O)N[C@@H](CC(=O)O)C(=O)N[C@@H](CCC(=O)O)C(=O)N[C@@H](CCCNC(=N)N)C(=O)N[C@@H](C)C(=O)N[C@@H](C)C(=O)N[C@@H](CCC(N)=O)C(=O)N[C@@H](Cc1ccc(CNC(=O)COCCOCCNC(=O)COCCOCCNC(=O)CC[C@H](NC(=O)CCCCCCCCCCCCCCC(=O)O)C(=O)O)cc1)C(=O)N[C@@H](Cc1ccccc1)C(=O)N[C@H](C(=O)N[C@@H](CCC(N)=O)C(=O)N[C@@H](Cc1c[nH]c2ccccc12)C(=O)N[C@@H](CC(C)C)C(=O)N[C@@H](CC(C)C)C(=O)N[C@@H](CCCCN)C(=O)N[C@H](C(N)=O)[C@@H](C)O)C(C)C` [compound 27] (H-H[Aib]QGTFTSDYSKYLDERAAQ[Phe(4-CH2NH2)]([AEEA-AEEA-γGlu-C16 diacid])FVQWLLKT-NH2) were 0.05 nM, 0.44 nM and 9.24.
Regarding `CC(C)C[C@H](NC(=O)[C@H](Cc1ccc(O)cc1)NC(=O)[C@H](CCCCN)NC(=O)[C@H](CO)NC(=O)[C@H](Cc1ccc(O)cc1)NC(=O)[C@](C)(CC(=O)O)NC(=O)[C@H](CO)NC(=O)[C@@H](NC(=O)[C@H](Cc1ccccc1)NC(=O)[C@@H](NC(=O)CNC(=O)[C@H](CCC(N)=O)NC(=O)C(C)(C)NC(=O)[C@@H](N)Cc1c[nH]cn1)[C@@H](C)O)[C@@H](C)O)C(=O)N[C@@H](CC(=O)O)C(=O)N[C@@H](C)C(=O)N[C@@H](CCCNC(=N)N)C(=O)N[C@@H](C)C(=O)N[C@@H](C)C(=O)N[C@@H](CCCCNC(=O)COCCOCCNC(=O)COCCOCCNC(=O)CC[C@H](NC(=O)CCCCCCCCCCCCCCC(=O)O)C(=O)O)C(=O)N[C@@H](CC(=O)O)C(=O)N[C@@H](Cc1ccccc1)C(=O)N[C@H](C(=O)N[C@@H](CCC(N)=O)C(=O)N[C@@H](Cc1c[nH]c2ccccc12)C(=O)N[C@@H](CC(C)C)C(=O)N[C@@H](CCS(C)(=O)=O)C(=O)N[C@@H](CC(=O)O)C(=O)N[C@H](C(N)=O)[C@@H](C)O)C(C)C` [compound 37] (H-H[Aib]QGTFTS[αMeD]YSKYLDARAAK([AEEA-AEEA-γGlu-C16 diacid])DFVQWL[Met(O2)]DT-NH2), the results for the EC50 at human GLP1R and at human GCGR were 0.11 nM and 0.67 nM, respectively. The “hGCGR/hGLP1R (hTone)” value on human GCGR is reported as 6.24.
Consider `CC(C)C[C@H](NC(=O)[C@H](Cc1ccc(O)cc1)NC(=O)[C@H](CCCCN)NC(=O)[C@H](CO)NC(=O)[C@H](Cc1ccc(O)cc1)NC(=O)[C@H](CC(=O)O)NC(=O)[C@H](CO)NC(=O)[C@@H](NC(=O)[C@H](Cc1ccccc1)NC(=O)[C@@H](NC(=O)CNC(=O)[C@H](CCC(N)=O)NC(=O)C(C)(C)NC(=O)[C@@H](N)Cc1c[nH]cn1)[C@@H](C)O)[C@@H](C)O)C(=O)N[C@@H](CC(=O)O)C(=O)N[C@@H](C)C(=O)N[C@@H](CCCNC(=N)N)C(=O)N[C@@H](C)C(=O)N[C@@H](C)C(=O)N[C@@H](CCC(N)=O)C(=O)N[C@@H](Cc1ccc(CNC(=O)COCCOCCNC(=O)COCCOCCNC(=O)CC[C@H](NC(=O)CCCCCCCCCCCCCCCCC(=O)O)C(=O)O)cc1)C(=O)N[C@@H](Cc1ccccc1)C(=O)N[C@H](C(=O)N[C@@H](CCC(N)=O)C(=O)N[C@@H](Cc1c[nH]c2ccccc12)C(=O)N[C@@H](CC(C)C)C(=O)N[C@@H](CC(C)C)C(=O)N[C@@H](CC(=O)O)C(=O)N[C@H](C(N)=O)[C@@H](C)O)C(C)C` [compound 32] (H-H[Aib]QGTFTSDYSKYLDARAAQ[Phe(4-CH2NH2)]([AEEA-AEEA-γGlu-C18 diacid])FVQWLLDT-NH2; N-terminus assumed), for which the EC50 was 0.028 nM at human GLP1R and 0.07 nM at human GCGR. The “hGCGR/hGLP1R (hTone)” value on human GCGR is listed as 2.52.
Regarding `CC(C)C[C@H](NC(=O)[C@H](Cc1c[nH]c2ccccc12)NC(=O)[C@H](CCC(N)=O)NC(=O)[C@@H](NC(=O)[C@H](Cc1ccccc1)NC(=O)[C@H](CC(=O)O)NC(=O)[C@H](CCCCNC(=O)COCCOCCNC(=O)COCCOCCNC(=O)CC[C@H](NC(=O)CCCCCCCCCCCCCCC(=O)O)C(=O)O)NC(=O)[C@H](C)NC(=O)[C@H](C)NC(=O)[C@H](CCCNC(=N)N)NC(=O)[C@H](C)NC(=O)[C@H](CC(=O)O)NC(=O)[C@](C)(CC(C)C)NC(=O)[C@H](Cc1ccc(O)cc1)NC(=O)[C@H](CCCCN)NC(=O)[C@H](CO)NC(=O)[C@H](Cc1ccc(O)cc1)NC(=O)[C@H](CC(=O)O)NC(=O)[C@H](CO)NC(=O)[C@@H](NC(=O)[C@H](Cc1ccccc1)NC(=O)[C@@H](NC(=O)CNC(=O)[C@H](CCC(N)=O)NC(=O)C(C)(C)NC(=O)[C@@H](N)Cc1c[nH]cn1)[C@@H](C)O)[C@@H](C)O)C(C)C)C(=O)N[C@@H](CCS(C)(=O)=O)C(=O)N[C@@H](CC(=O)O)C(=O)N[C@H](C(N)=O)[C@@H](C)O` [compound 38] (H-H[Aib]QGTFTSDYSKY[αMeL]DARAAK([AEEA-AEEA-γGlu-C16 diacid])DFVQWL[Met(O2)]DT-NH2), the EC50 at human GLP1R was found to be 0.1 nM; on human GCGR it was 0.46 nM. Further, at human GCGR, the “hGCGR/hGLP1R (hTone)” value was 4.54.
Turning to `CC(C)C[C@H](NC(=O)[C@H](Cc1ccc(O)cc1)NC(=O)[C@H](CCCCN)NC(=O)[C@H](CO)NC(=O)[C@H](Cc1ccc(O)cc1)NC(=O)[C@H](CC(=O)O)NC(=O)[C@H](CO)NC(=O)[C@@H](NC(=O)[C@H](Cc1ccccc1)NC(=O)[C@@H](NC(=O)CNC(=O)[C@H](CCC(N)=O)NC(=O)C(C)(C)NC(=O)[C@@H](N)Cc1c[nH]cn1)[C@@H](C)O)[C@@H](C)O)C(=O)N[C@@H](CC(=O)O)C(=O)N[C@@H](C)C(=O)N[C@@H](CCCNC(=N)N)C(=O)N[C@@H](C)C(=O)N[C@@H](C)C(=O)N[C@@H](CCCCNC(=O)COCCOCCNC(=O)COCCOCCNC(=O)CC[C@H](NC(=O)CCCCCCCCCCCCCCCCC(=O)O)C(=O)O)C(=O)N[C@@H](CC(=O)O)C(=O)N[C@@H](Cc1ccccc1)C(=O)N[C@H](C(=O)N[C@@H](CCC(N)=O)C(=O)N[C@@H](Cc1c[nH]c2ccccc12)C(=O)N[C@@H](CC(C)C)C(=O)N[C@@H](CCS(C)(=O)=O)C(=O)N[C@@](C)(CC(=O)O)C(=O)N[C@H](C(N)=O)[C@@H](C)O)C(C)C` [compound 33] (H-H[Aib]QGTFTSDYSKYLDARAAK([AEEA-AEEA-γGlu-C18 diacid])DFVQWL[Met(O2)][αMeD]T-NH2), the EC50 is 0.07 nM at human GLP1R and 0.3 nM on human GCGR. The “hGCGR/hGLP1R (hTone)” value at human GCGR came to 4.00.
